Laboratory results reported in patent US10039729B2, “Use of kukoamine A and kukoamine B” (Tianjin Chase Sun Pharmaceutical Co., Ltd., priority 2010, dated 2018).

What was measured:
RAW264.7 cells [1] = test: Cell vitality of RAW264.7 cells (MTT assay); format: cell-based, murine; conditions: 24 h; for RAW264.7 cells vitality (OD550): 200 μg/ml, p>0.05
Procedure: (1) Influence on vitality of RAW264.7 cells: According to embodiment 7, for the purpose of experiment a medium group, KB group (25, 50, 100, 200, 400 and 800 μM), a LPS (100 ng/ml)+KB (0, 100, 200 and 400 μM) group and a CpG DNA (10 μg/ml)+KB (0, 100, 200 and 400 μM) group were established; MTT was dissolved with PBS to make 5 mg/ml solution and filtered, which served as stock solution and stored at −20° C. for further detection; RAW264.7 cells were adjusted to 1×10^6/ml in DMEM medium, added into 96-well plates (200 μl per well), and cultured at 37° C. in a 5% CO2 humidified incubator for 4 h; the specified concentration of LPS, CpG DNA and KB were separately loaded according to the grouping; cells were cultured at 37° C. in a 5% CO2 humidified incubator for 24 h, centrifuged at 1000 rpm/min for 5 min; the supernatant was sucked and discarded; each well was added with 180 μl cell culture medium and 20 μl MTT stock solution, then cultured at 37° C. in a 5% CO2 humidified incubator for 4 h, and centrifuged at 1000 rpm/min for 10 min; then the supernatant was sucked and discarded; each well was added with 150 μl DMSO, and shook for 10 min for the dissolution of the crystals; RAW264.7 cells vitality was expressed as absorbance values at 550 nm of each well, which were instantly assayed by ELIASA.

[2] = Affinity biosensor binding with immobilized lipid A; conditions: 100 μM operating solution, 5 μl loaded
Excerpt: Immobilization of lipid A and CpG DNA: Using Optically-Based Affinity Biosensors technology, Lipid A, the biologic active centres of LPS, and CpG DNA were respectively, immobilized on the reacting surfaces of cuvettes in an IAsys plus affinity biosensor according to the manufacturer's instructions of IAsys Affinity Sensor. The end of hydrophobic side chain of lipid A was immobilized on cuvette with hydrophobic surface, and the phosphate group (active group of lipid A) at the other end was floating and exposing to the outside, which act as target spot of binding with active constituents for disease treatment in traditional Chinese medicine. The active constituents in solution were binded to lipid A through electrostatic interaction. […]
2.1.1 Methods: 500 g Lycii cortex was added with 5 L distilled water, soaked for 24 h, boiled at 100 for 1 h, filtered by coarse filter paper, and centrifuged at 8000 rpm/min for 30 min, and the supernatant was collected and concentrated to 1 L under reduced pressure. […] Their binding activity with lipid A and CpG DNA were detected according to methods of embodiment 1. […]
3.1 Methods: KA and KB were separately dissolved to make 100 μM operating solution; 5 μl of the solution was loaded; their binding activity with lipid A and CpG DNA were detected according to methods of embodiment 1.

RAW264.7 cells [3] = test: Binding of fluorescently-labeled LPS and CpG DNA with RAW264.7 cells (flow cytometry); format: cell-based, murine; conditions: 30 min; for fluorescence intensity of CpG DNA in RAW264.7 cells / fluorescence intensity of LPS in RAW264.7 cells: 200 μg/ml, p<0.01; for fluorescence intensity of CpG DNA in RAW264.7 cells: 5-FAM CpG DNA 10 μg/ml; for fluorescence intensity of LPS in RAW264.7 cells: FITC-labeled LPS 400 ng/ml
Procedure: 5.1 Methods: RAW264.7 cells were diluted to 1×10^6/ml in DMEM supplemented with 10% (v/v) NCS, added into 24-well cell culture plates, cultured at 37° C. in a 5% CO2 humidified incubator for 4 h, added with KA and KB (0, 200 μg/ml) after cells attachment, and then added with FITC-labeled LPS (final concentration of 400 ng/ml) and 5-FAM CpG DNA (final concentration of 10 μg/ml); at the same time, medium group without any reagent was established; subsequently, RAW264.7 cells were incubated for 30 min, washed thrice in PBS, resuspended with a pipet and transferred into EP tube, and immobilized with 4% paraform for 10 min; then cells were washed thrice in PBS, made into cell suspension, and detected by flow cytometry; the detections of each group were repeated thrice. Mean fluorescence intensity was expressed by means of Mean±standard deviation.
20.1 Methods: RAW264.7 cells was diluted to 1×10^6/ml in DMEM supplemented with 10% (v/v) NCS; 2 ml of the above suspension was added into 24-well cell culture plates and cultured at 37° C. in a 5% CO2 humidified incubator for 4 h; for the purpose of experiment three groups were established: medium group, stimulation group and KB treatment group; no reagent was added into medium group; stimulation group was added with FITC-LPS (200 ng/ml) and 5-FAM-CpG DNA (10 μg/ml); KB treatment group was added with KB (final concentrations of 50, 100 and 200 μM) in the meantime of adding LPS and CpG DNA; cells continued to be cultured for 30 min, washed thrice with PBS, and stored in dark place until the fluorescence intensity of cell membrane surfaces was detected by flow cytometry.

O=C(CCc1ccc(O)c(O)c1)NCCCNCCCCNCCCNC(=O)CCc1ccc(O)c(O)c1 [KA, Kukoamine A]
RAW264.7 cells vitality (OD550) (RAW264.7 cells [1]): no influence on RAW264.7 cells vitality | affinity with lipid A [2]: high affinity | fluorescence intensity of CpG DNA in RAW264.7 cells (RAW264.7 cells [3]): significantly decrease the fluorescence intensity | fluorescence intensity of LPS in RAW264.7 cells (RAW264.7 cells [3]): significantly decrease the fluorescence intensity

NCCCN(CCCCNCCCNC(=O)CCc1ccc(O)c(O)c1)C(=O)CCc1ccc(O)c(O)c1 [KB, Kukoamine B]
RAW264.7 cells vitality (OD550) (RAW264.7 cells [1]): no influence on RAW264.7 cells vitality | absorbance values (vitality of RAW264.7 cells) vs medium group (RAW264.7 cells [1]; KB 25-800 μM, or KB 0-400 μM plus LPS 100 ng/ml or CpG DNA 10 μg/ml): no statistic difference on absorbance values | affinity with lipid A [2]: high affinity | fluorescence intensity of CpG DNA in RAW264.7 cells (RAW264.7 cells [3]): significantly decrease the fluorescence intensity | fluorescence intensity of LPS in RAW264.7 cells (RAW264.7 cells [3]): significantly decrease the fluorescence intensity | mean fluorescence intensity (MFI) of cell membrane, 5-FAM-CpG DNA (RAW264.7 cells [3]; KB 50, 100 and 200 μM, 5-FAM-CpG DNA 10 μg/ml): decrease the MFI of cell membrane in a dose-dependent manner | mean fluorescence intensity (MFI) of cell membrane, FITC-LPS (RAW264.7 cells [3]; KB 50, 100 and 200 μM, FITC-LPS 200 ng/ml): decrease the MFI of cell membrane in a dose-dependent manner
